In ChEMBL document CHEMBL5143506, “Design, synthesis, and mechanism study of dimerized phenylalanine derivatives as novel HIV-1 capsid inhibitors” (Eur J Med Chem, 2021):

Legend:
in vitro [1] = conditions: human, liver microsomes
[2] = tested on: Human immunodeficiency virus 1; assay: Antiviral activity against wild type HIV-1 IIIB infected in human MT4 cells assessed as protection against virus-induced cytopathic effect measured after 5 days by MTT assay; format: functional, organism-based; conditions: Human immunodeficiency virus 1, IIIB, MT4, 120 h
MT4 = assay: (§1) Cytotoxicity against human MT4 cells assessed as reduction in cell viability incubated for 5 days by MTT assay; conditions: mt4, 120 h
[3] = tested on: Human immunodeficiency virus 1; assay: Antiviral activity against HIV1 NL4-3 Env-deficient pseudotype virus infected in human U87.CD4.CCR5.CXCR4 cells assessed by reduction in viral infection in early stage at 1 uM measured after 48 hrs by luciferase activity based single-round infection assay; format: functional; set-up: scale not given: the % may be the effect or the level left
[4] = tested on: Human immunodeficiency virus 1; assay: Antiviral activity against HIV1 NL4-3 Env-deficient pseudotype virus infected in human U87.CD4.CCR5.CXCR4 cells assessed by reduction in viral infection in late stage at 1 uM measured after 48 hrs by luciferase activity based single-round infection assay; format: functional; set-up: scale not given: the % may be the effect or the level left
[5] = human, microsomes, 3 h, 100 µM
in vitro [6] = conditions: human, liver microsomes; remark: listed apart in the source
Description: Metabolic stability in human liver microsome assessed as parent compound remaining at 100 uM measured after 60 mins in presence of NADPH by LC-MS/MS analysis

in vitro [7] = conditions: human, liver microsomes; remark: listed apart in the source
Description: Metabolic stability in human liver microsome assessed as parent compound remaining at 100 uM measured after 60 mins by LC-MS/MS analysis

in vitro [8] = conditions: human, MT4 cells
Description: Selectivity index, ratio of CC50 for cytotoxicity against human MT4 cells to EC50 for antiviral activity against HIV-1 IIIB infected in human MT4 cells

[9] = as §1; conditions: MT4 cells
[10] = human, microsomes, 3 h, 100 µM; remark: listed apart in the source
[11] = tested on: Human immunodeficiency virus 1; assay: Antiviral activity against HIV1 NL4-3 Env-deficient pseudotype virus infected in human U87.CD4.CCR5.CXCR4 cells assessed by reduction in viral infection in early stage at 5 uM measured after 48 hrs by luciferase activity based single-round infection assay; format: functional; set-up: scale not given: the % may be the effect or the level left
[12] = tested on: Human immunodeficiency virus 1; assay: Antiviral activity against HIV1 NL4-3 Env-deficient pseudotype virus infected in human U87.CD4.CCR5.CXCR4 cells assessed by reduction in viral infection in late stage at 5 uM measured after 48 hrs by luciferase activity based single-round infection assay; format: functional; set-up: scale not given: the % may be the effect or the level left
in vitro [13] = conditions: human, MT4 cells; remark: listed apart in the source
Description: Selectivity index, ratio of CC50 for cytotoxicity against human MT4 cells to EC50 for antiviral activity against HIV-1 ROD infected in human MT4 cells

With Cc1[nH]c2ccccc2c1CC(=O)N[C@@H](Cc1ccccc1)C(=O)N(C)c1ccccc1 the half-life at 3 h, 100 µM (in vitro [1]) was 30 s.

In the case of COc1ccc(N(C)C(=O)[C@H](Cc2ccccc2)NC(=O)CN2CCN(S(=O)(=O)c3ccc(N)cc3)CC2=O)cc1, the EC50 [2] is reported as 0.16 µM, the CC50 (MT4) is reported as 119 µM and the Activity [3] is reported as 7.1%. For the same compound, the Activity [4] was 55%, the CLH [5] was 395.6 µL/min/mg and the remaining at 1 h, 100 µM (in vitro [6]) was 0.1%. For the same compound, the remaining at 1 h, 100 µM (in vitro [7]) was 106%.

In the case of COc1ccc(N(C)C(=O)[C@H](Cc2ccccc2)NC(=O)CN2CCN(CC(=O)N[C@@H](Cc3ccccc3)C(=O)N(C)c3ccc(OC)cc3)C(=O)C2)cc1, the EC50 [2] is reported as at least 3.67 µM and the CC50 (MT4) is reported as 15.7 µM.

Work on COc1ccc(N(C)C(=O)[C@H](Cc2cc(F)cc(F)c2)NC(=O)CN2CCN(CC(=O)N[C@@H](Cc3ccccc3)C(=O)N(C)c3ccccc3)C(=O)C2)cc1 yielded an EC50 [2] of 4.19 µM, a CC50 (MT4) of 12.8 µM and a selectivity ratio (in vitro [8]) of 3.05.

For COc1ccc(N(C)C(=O)[C@H](Cc2ccccc2)NC(=O)CN2CC(=O)N(CC(=O)N[C@@H](Cc3ccccc3)C(=O)N(C)c3ccc(OC)cc3)CC2=O)cc1, the EC50 [2] was 3.59 µM, the CC50 at 120 h [9] was 24.5 µM and the selectivity ratio (in vitro [8]) was 6.82.

With COc1ccc(N(C)C(=O)[C@H](Cc2cc(F)cc(F)c2)NC(=O)CN2CCN(CC(=O)N[C@@H](Cc3ccccc3)C(=O)N(C)c3ccc(OC)cc3)C(=O)C2)cc1 the EC50 [2] was 1.48 µM, the CC50 (MT4) was 13.5 µM and the selectivity ratio (in vitro [8]) was 9.11.

Compound CN(C(=O)[C@H](Cc1ccccc1)NC(=O)CN1CCNCC1=O)c1ccccc1 has an EC50 [2] of 247 µM and a CC50 at 120 h [9] of over 317 µM.

Compound COc1ccc(N(C)C(=O)[C@H](Cc2cc(F)cc(F)c2)NC(=O)CN2CCN(CC(=O)N[C@@H](Cc3ccccc3)C(=O)N(C)c3ccccc3)CC2=O)cc1 has an EC50 [2] of 2.84 µM, a CC50 (MT4) of 17.5 µM and a selectivity ratio (in vitro [8]) of 6.15.

Compound COc1ccc(N(C)C(=O)[C@H](Cc2cc(F)cc(F)c2)NC(=O)CN2CCNCC2=O)cc1 has an EC50 [2] of 31.1 µM and a CC50 (MT4) of over 272 µM.

In the case of COc1ccc(N(C)C(=O)[C@H](Cc2ccccc2)NC(=O)CN2CCNCC2=O)cc1, the EC50 [2] is reported as 89.2 µM and the CC50 (MT4) is reported as over 294 µM.

For COc1ccc(N(C)C(=O)[C@H](Cc2cc(F)cc(F)c2)NC(=O)CN2CC(=O)N(CC(=O)N[C@@H](Cc3cc(F)cc(F)c3)C(=O)N(C)c3ccc(OC)cc3)CC2=O)cc1, the EC50 [2] was 0.69 µM, the CC50 (MT4) was 13.3 µM and the t1/2 [10] was 96 s. For the same compound, the CLH [5] was 843.9 µL/min/mg, the remaining at 1 h, 100 µM (in vitro [6]) was 0% and the remaining at 1 h, 100 µM (in vitro [7]) was 105%.

For COc1ccc(N(C)C(=O)[C@H](Cc2ccccc2)NC(=O)CN2CCN(CC(=O)N[C@@H](Cc3ccccc3)C(=O)N(C)c3ccccc3)CC2=O)cc1, the EC50 [2] was over 32.4 µM and the CC50 (MT4) was 32.4 µM.

In the case of COc1ccc(N(C)C(=O)[C@H](Cc2cc(F)cc(F)c2)NC(=O)CN2CCN(CC(=O)N[C@@H](Cc3cc(F)cc(F)c3)C(=O)N(C)c3ccc(OC)cc3)C(=O)C2)cc1, the Activity [11] is reported as 86.6%, the Activity [12] is reported as 0.6% and the t1/2 [10] is reported as 48 s.

For COc1ccc(N(C)C(=O)[C@H](Cc2ccccc2)NC(=O)CN2CCN(CC(=O)N[C@@H](Cc3cc(F)cc(F)c3)C(=O)N(C)c3ccc(OC)cc3)C(=O)C2)cc1, the EC50 [2] was 2.52 µM, the CC50 (MT4) was 15.5 µM and the selectivity ratio (in vitro [8]) was 6.14.

CN(C(=O)[C@H](Cc1ccccc1)NC(=O)CN1CC(=O)N(CC(=O)N[C@@H](Cc2ccccc2)C(=O)N(C)c2ccccc2)CC1=O)c1ccccc1 showed an EC50 [2] of 4.24 µM, a CC50 (MT4) of 71.8 µM and a selectivity ratio (in vitro [8]) of 16.9. The selectivity ratio (in vitro [13]) was 2.41.

Work on COc1ccc(N(C)C(=O)[C@H](Cc2ccccc2)NC(=O)CN2CCN(CC(=O)N[C@@H](Cc3ccccc3)C(=O)N(C)c3ccccc3)C(=O)C2)cc1 yielded an EC50 [2] of at least 3.37 µM and a CC50 (MT4) of 21.7 µM.

For CN(C(=O)[C@H](Cc1ccccc1)NC(=O)CN1CCN(CC(=O)N[C@@H](Cc2ccccc2)C(=O)N(C)c2ccccc2)C(=O)C1)c1ccccc1, the EC50 [2] was over 32.6 µM and the CC50 (MT4) was 32.6 µM.
